Data reported in patent US10933033B2, “Composition for preventing or reducing nephrotoxicity and use thereof” (KOREA INSTITUTE OF SCIENCE AND TECHNOLOGY, priority 2018, dated 2021).

How the values were obtained:
[1] = tested on: LLC-PK1 cells; test: Image-based cell analysis of apoptosis (Annexin V / PI, Tali cytometer); conditions: for Apoptosis (%): 2 h pre-incubation, then 25 μM cisplatin for 24 h, LLC-PK1
Description: The cultured LLC-PK1 cells in DMEM were dispensed in a 6-well plate at a density of 4×10^5 cells in 3 mL of the same DMEM medium per each well and then incubated under the same conditions for 24 hours to stabilize the cells.
After incubation under the same conditions for about 24 hours, the cells were collected using trypsin, washed once with phosphate-buffered saline (PBS), resuspended in 100 μL of annexin-binding buffer ([…], 140 mM NaCl, […], pH 7.4) to reach a cell number of about 5×10^5 to about 5×10^6 cells/mL, and then mixed with 5 μL of Annexin V Alexa Fluor 488 and left in the dark at room temperature for about 20 minutes to fix and stain the cells. The resulting cell suspension was centrifuged to discard the supernatant and collect precipitated cell pellets. The precipitated cell pellets were resuspended in 100 μL of annexin-binding buffer to obtain a resuspension.
Next, 1 μL of propidium iodide (PI) was added to the resuspension, mixed thoroughly, and then left in the dark at room temperature for about 1 minute to about 5 minutes to fix and stain the cells. The stained cells were analyzed using a Tali Image-based cytometer and TaliPCApp (version 1.0) software.
Cells were divided into live cells (annexin V-negative/PI-negative), early apoptotic cells (annexin V-positive/PI-negative), and late apoptotic or necrotic cells (annexin V-positive/PI-positive), and total apoptotic cells were expressed as a ratio of annexin V-positive cells to PI-negative or PI-positive cells.

[2] = tested on: LLC-PK1 cells; test: Protective effect against cisplatin nephrotoxicity, cell viability (CCK-8); type: cell-based; conditions: for effect on cell viability that had been reduced with cisplatin: 25 μM cisplatin, LLC-PK1, concentration-dependent; for viability at 5 µg/mL / viability at 10 µM / viability at 10 µg/mL / viability at 25 µg/mL / viability at 50 µg/mL / viability at 100 µg/mL: Sus scrofa, LLC-PK1
Description: First, LLC-PK1 cells were cultured in a Dulbecco's modified Eagle's medium (DMEM) (available from Cellgro, Manassas, Va., USA) in which 10% of fetal bovine serum (FBS), 100 units/mL of penicillin G, and 100 μg/mL of streptomycin were added, in an incubator (95% air and 5% CO2) maintained at about 37° C. The used FBS, penicillin G, and streptomycin were purchased from Gibco BRL Life Technologies Inc. The cultured LLC-PK1 cells were dispensed in a 96-well plate at a density of 1×10^4 cells in 100 μL of the same DMEM medium per each well and then stabilized for about 22 hours.
After 1 hour, absorbance at a detection wavelength of 450 nm was measured using a BIO-TEK microplate reader (available from Winooski, Vt., USA) to thereby measure cell viability.

Compound	apoptosis of the LLC-PK1 cells caused by cisplatin ([1]; 5 μM and 10 μM, 25 μM cisplatin)	Apoptosis (%) ([1]; 5 μM)	Apoptosis (%) ([1]; 10 μM)	effect on cell viability that had been reduced with cisplatin [2]	viability at 5 µg/mL [2] [%]	viability at 10 µM [2] [%]	viability at 10 µg/mL [2] [%]	viability at 25 µg/mL [2] [%]	viability at 50 µg/mL [2] [%]	viability at 100 µg/mL [2] [%]
O=C1CC2C(=C3c4c2ccc(O)c4[C@H](O)C[C@@H]3O)c2cccc(O)c21 (some centres unmarked) [Hypoxylonol F]	significantly reduced	26.3	6.6	significantly increase cell viability	86.4	≥ 90	90.9	92.2	92.3	94.4
Oc1cccc2c(-c3ccc(O)c4c(O)cccc34)ccc(O)c12 [BNT, 1,1′-binaphthalene-4,4′,5,5′-tetrol]	–	–	–	significantly increase cell viability	63.3	–	65.1	65.4	71.5	75.1
O=C1CC2C(=C3c4c2ccc(O)c4[C@@H](O)C[C@@H]3O)c2cccc(O)c21 (some centres unmarked) [Hypoxylonol C]	–	–	–	significantly increase cell viability	76.9	≥ 85	86.6	89.3	89.5	92.5
